{"source": "the Kinase Knowledgebase extract (Sharma et al. 2016)", "data": [{"target": "EGFR (mouse) (UniProt P00533)", "details": "nih3t3 fibroblast", "units": {"IC50": "µM"}, "values": [{"smiles": "Cc1c(CCC(=O)O)c[nH]c1/C=C1\\C(=O)Nc2cc(-c3ccccc3)ccc21", "IC50": 21.8}, {"smiles": "Cc1[nH]c(/C=C2\\C(=O)Nc3cc(-c4ccccc4)ccc32)c(C)c1CCC(=O)O", "IC50": 21.9}, {"smiles": "COc1ccc2c(c1)NC(=O)/C2=C\\c1[nH]cc(CCC(=O)O)c1C", "IC50": "> 50"}, {"smiles": "Cc1[nH]c(/C=C2\\C(=O)Nc3ccc(C(=O)O)cc32)c(C)c1CCC(=O)O", "IC50": "> 50"}, {"smiles": "COc1cccc(-c2ccc3c(c2)NC(=O)/C3=C\\c2[nH]cc(C)c2CCC(=O)O)c1", "IC50": 49.2}, {"smiles": "Cc1c[nH]c(/C=C2\\C(=O)Nc3cccc(C)c32)c1CCC(=O)O", "IC50": 28.8}, {"smiles": "Cc1c(CCC(=O)O)c[nH]c1/C=C1\\C(=O)Nc2ccc(S(N)(=O)=O)cc21", "IC50": "> 50"}, {"smiles": "Cc1c[nH]c(/C=C2\\C(=O)Nc3ccccc32)c1CCC(=O)O", "IC50": "> 50"}, {"smiles": "CCOc1cccc(-c2ccc3c(c2)NC(=O)/C3=C\\c2[nH]cc(C)c2CCC(=O)O)c1", "IC50": "> 50"}, {"smiles": "COc1cccc(-c2ccc3c(c2)NC(=O)/C3=C\\c2[nH]c(C)c(CCC(=O)O)c2C)c1", "IC50": 24.1}, {"smiles": "COc1ccccc1-c1ccc2c(c1)NC(=O)/C2=C\\c1[nH]cc(CCC(=O)O)c1C", "IC50": 19.2}, {"smiles": "Cc1[nH]c(/C=C2\\C(=O)Nc3ccc(Br)cc32)c(C)c1CCC(=O)O", "IC50": "> 50"}, {"smiles": "COc1ccc2c(c1)NC(=O)/C2=C\\c1[nH]c(C)c(CCC(=O)O)c1C", "IC50": "> 50"}, {"smiles": "Cc1c(CCC(=O)O)c[nH]c1/C=C1\\C(=O)Nc2ccc(C(=O)O)cc21", "IC50": "> 50"}, {"smiles": "Cc1c[nH]c(/C=C2\\C(=O)Nc3ccc(Br)cc32)c1CCC(=O)O", "IC50": "> 50"}, {"smiles": "Cc1c(CCC(=O)O)c[nH]c1/C=C1\\C(=O)Nc2ccccc21", "IC50": "> 50"}]}]}
